The values below are quoted from earlier work in US20250295106A1, “HERBICIDAL COMPOSITION” (NOURYON CHEMICALS INTERNATIONAL B.V., priority 2024, published 2025).

The conditions of this data set: acid form, at 25° C.

For `O=C(O)CNCP(=O)(O)O` [glyphosate, N-phosphonomethylglycine], the solubility in water is reported as 1.16 % by weight.
